Assay results reported in patent US12570675B2, “Boronic acid compounds” (LG CHEM, LTD., priority 2020, dated 2026).

molecular target: Proteasome chymotrypsin-like activity (S26 protein from RPMI8226 cells) (Homo sapiens, UniProt P28074); type: biochemical; settings: S26 protein from RPMI8226 cell extract 2 ug/well, substrate 20 uM, 37° C., 90 minutes; read-out: Proteasome chymotrypsin-like activity inhibition IC50
Method: The abilities to inhibit the proteasome activity of the compounds described in the Examples of the present invention and boronic acid drugs were evaluated as follows.
RPMI8226 cells, which is a multiple myeloma cell line, were cultured and then separated by a centrifuge, and washed twice with phosphate buffered saline (PBS). 20 mM of a tris-HCl (pH 8.0) buffer solution was added to the washed cells, and the cells were disrupted by a homogenizer and centrifuged to obtain S26 protein from the supernatant. Suc-Leu-Leu-Val-Tyr-AMC, for a fluorogenic substrate for the chymotrypsin-like activity of the proteasome, and Z-Leu-Leu-Glu-AMC, for a fluorogenic substrate for the caspase-like activity, were purchased from Calbiochem, EMD Millipore and used. Into each well of a 96-well plate (opaque, black round bottom), 20 ul of the S26 protein (final RPMI8226 cell extract concentration: 2 ug/well), 10 ul of S26 proteasome inhibitor serially diluted from 10 uM (final DMSO concentration: 0.5%), and 20 ul of the fluorogenic substrate for the proteasome chymotrypsin-like or caspase-like activity (final concentration: 20 uM) were added and mixed and allowed to react in a 37° C. incubator for 90 minutes. The fluorescence of the fluorogenic substrate was measured by FlexStation II Fluorometer (Molecular Devices). The fluorescence inhibited by the compound diluted at each concentration was measured as the relative percentage value for the amount obtained from the treatment only with the S26 protein and the fluorogenic substrate. IC50 (inhibitory concentration 50) was expressed in terms of a concentration that inhibits 50% of the maximum fluorescence induced by the fluorogenic substrate.

Proteasome chymotrypsin-like activity (S26 protein from RPMI8226 cells), sequence (P28074 60-263 limits assumed): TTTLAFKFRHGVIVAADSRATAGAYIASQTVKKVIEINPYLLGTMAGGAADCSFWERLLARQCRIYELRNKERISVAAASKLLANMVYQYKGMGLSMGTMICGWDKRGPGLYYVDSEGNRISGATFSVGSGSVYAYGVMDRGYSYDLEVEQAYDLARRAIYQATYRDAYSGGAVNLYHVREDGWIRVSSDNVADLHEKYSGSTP

Structure (SMILES)	IC50
CC(C)C[C@H](NC(=O)C1CC(c2cccc(OC(F)(F)F)c2)=NO1)B(O)O (stereo partly drawn) [Example 37, ((1R)-3-methyl-1-(3-(3-(trifluoromethoxy)phenyl)-4,5-dihydroisoxazol-5-carboxamido)butyl)boronic acid]	< 500 nM
CC(C)C[C@H](NC(=O)C1CC(c2ccc(OC(F)(F)F)cc2)=NO1)B(O)O (stereo partly drawn) [Example 38, ((1R)-3-methyl-1-(3-(4-(trifluoromethoxy)phenyl)-4,5-dihydroisoxazol-5-carboxamido)butyl)boronic acid]	< 500 nM
CC(C)C[C@H](NC(=O)C1CC(c2ccccc2OC(F)(F)F)=NO1)B(O)O (stereo partly drawn) [Example 39, ((1R)-3-methyl-1-(3-(2-(trifluoromethoxy)phenyl)-4,5-dihydroisoxazol-5-carboxamido)butyl)boronic acid]	< 500 nM
CC(C)C[C@H](NC(=O)C1CC(c2cccc(Oc3ccccc3)c2)=NO1)B(O)O (stereo partly drawn) [Example 40, ((1R)-3-methyl-1-(3-(3-phenoxyphenyl)-4,5-dihydroisoxazol-5-carboxamido)butyl)boronic acid]	< 500 nM
CC(C)C[C@H](NC(=O)C1CC(c2cccc(Oc3ccccn3)c2)=NO1)B(O)O (stereo partly drawn) [Example 41, ((1R)-3-methyl-1-(3-(3-(pyridin-2-yloxy)phenyl)-4,5-dihydroisoxazol-5-carboxamido)butyl)boronic acid]	< 250 nM
CC(C)C[C@H](NC(=O)C1CC(c2ccc(Oc3ccccn3)cc2)=NO1)B(O)O (stereo partly drawn) [Example 42, ((1R)-3-methyl-1-(3-(4-(pyridin-2-yloxy)phenyl)-4,5-dihydroisoxazol-5-carboxamido)butyl)boronic acid]	< 250 nM
CC(C)C[C@H](NC(=O)C1CC(c2cccc(OCc3ccccn3)c2)=NO1)B(O)O (stereo partly drawn) [Example 43, ((1R)-3-methyl-1-(3-(3-(pyridin-2-ylmethoxy)phenyl)-4,5-dihydroisoxazol-5-carboxamido)butyl)boronic acid]	< 250 nM
CC(C)C[C@H](NC(=O)C1CC(c2ccc(Oc3ccccc3)cc2)=NO1)B(O)O (stereo partly drawn) [Example 44, ((1R)-3-methyl-1-(3-(4-phenoxyphenyl)-4,5-dihydroisoxazol-5-carboxamido)butyl)boronic acid]	< 500 nM
CC(C)C[C@H](NC(=O)C1CC(CNC(=O)c2ccccn2)=NO1)B(O)O (stereo partly drawn) [Example 60]	< 250 nM
CC(C)C[C@H](NC(=O)C1ON=C(CNC(=O)c2nccc3ccccc23)C1C)B(O)O (stereo partly drawn) [Example 65, ((1R)-1-(3-((isoquinolin-1-carboxamido)methyl)-4-methyl-4,5-dihydroisoxazol-5-carboxamido)-3-methylbutyl)boronic acid]	< 250 nM
CC(C)C[C@H](NC(=O)C1CC(CNC(=O)c2ccc(C(C)(C)C)cc2)=NO1)B(O)O (stereo partly drawn) [Example 70, ((1R)-1-(3-((4-(tert-butyl)benzamido)methyl)-4,5-dihydroisoxazol-5-carboxamido)-3-methylbutyl)boronic acid]	< 100 nM
CC(C)C[C@H](NC(=O)C1CC(C(=O)NCc2cc(Cl)ccc2Cl)=NO1)B(O)O (stereo partly drawn) [Example 75, ((1R)-1-(3-((2,5-dichlorobenzyl)carbamoyl)-4,5-dihydroisoxazol-5-carboxamido)-3-methylbutyl)boronic acid]	< 100 nM
CC(C)C[C@H](NC(=O)C1CC(C(=O)Nc2cccc3ccccc23)=NO1)B(O)O (stereo partly drawn) [Example 76, ((1R)-3-methyl-1-(3-(naphthalen-1-ylcarbamoyl)-4,5-dihydroisoxazol-5-carboxamido)butyl)boronic acid]	< 50 nM
CC(C)C[C@H](NC(=O)C1CC(C(=O)Nc2cccc(Cl)c2)=NO1)B(O)O (stereo partly drawn) [Example 77, ((1R)-1-(3-((3-chlorophenyl)carbamoyl)-4,5-dihydroisoxazol-5-carboxamido)-3-methylbutyl)boronic acid]	< 250 nM
CC(C)C[C@H](NC(=O)C1CC(CNC(=O)Cc2ccccc2)=NO1)B(O)O (stereo partly drawn) [Example 79, ((1R)-3-methyl-1-(3-((2-phenylacetamido)methyl)-4,5-dihydroisoxazol-5-carboxamido)butyl)boronic acid]	< 100 nM
Cc1cc(C(=O)NCC2=NOC(C(=O)N[C@@H](CC(C)C)B(O)O)C2)no1 (stereo partly drawn) [Example 81, ((1R)-3-methyl-1-(3-((5-methylisoxazol-3-carboxamido)methyl)-4,5-dihydroisoxazol-5-carboxamido)butyl)boronic acid]	< 250 nM
CC(C)C[C@H](NC(=O)C1CC(CNC(=O)c2cnccn2)=NO1)B(O)O (stereo partly drawn) [Example 83, ((1R)-3-methyl-1-(3-((pyrazin-2-carboxamido)methyl)-4,5-dihydroisoxazol-5-carboxamido)butyl)boronic acid]	< 250 nM

Next, values leading:

IC50	Structure (SMILES)
< 10 nM	CC(C)C[C@H](NC(=O)C1(Cc2ccccc2)CC(COCc2cc(Cl)ccc2Cl)=NO1)B(O)O (stereo partly drawn) [Example 45, ((1R)-1-(5-benzyl-3-(((2,5-dichlorobenzyl)oxy)methyl)-4,5-dihydroisoxazol-5-carboxamido)-3-methylbutyl)boronic acid]
< 10 nM	Cc1nc(COCC2=NOC(Cc3ccccc3)(C(=O)N[C@@H](CC(C)C)B(O)O)C2)c(Cl)s1 (stereo partly drawn) [Example 50, ((1R)-1-(5-benzyl-3-(((5-chloro-2-methylthiazol-4-yl)methoxy)methyl)-4,5-dihydroisoxazol-5-carboxamido)-3-methylbutyl)boronic acid]
< 10 nM	CC(C)C[C@H](NC(=O)C1(Cc2ccccc2)CC(COCc2cccc(Br)c2)=NO1)B(O)O (stereo partly drawn) [Example 52, ((1R)-1-(5-benzyl-3-(((3-bromobenzyl)oxy)methyl)-4,5-dihydroisoxazol-5-carboxamido)-3-methylbutyl)boronic acid]
< 10 nM	CC(C)C[C@H](NC(=O)C1(Cc2ccccc2)CC(COCc2cccc(Br)n2)=NO1)B(O)O (stereo partly drawn) [Example 53, ((1R)-1-(5-benzyl-3-(((6-bromopyridin-2-yl)methoxy)methyl)-4,5-dihydroisoxazol-5-carboxamido)-3-methylbutyl)boronic acid]
< 10 nM	CC(C)C[C@H](NC(=O)C1(Cc2ccccc2)CC(COCc2cccc(-c3ccccc3)c2)=NO1)B(O)O (stereo partly drawn) [Example 54, ((1R)-1-(3-(([1,1′-biphenyl]-3-ylmethoxy)methyl)-5-benzyl-4,5-dihydroisoxazol-5-carboxamido)-3-methylbutyl)boronic acid]
< 10 nM	CC(C)C[C@H](NC(=O)C1(Cc2ccccc2)CC(COCc2cccc(-c3ccccc3)n2)=NO1)B(O)O (stereo partly drawn) [Example 55, [(1R)-1-[[5-benzyl-3-[(6-phenyl-2-pyridyl)methoxymethyl]-4H-1,2-oxazol-5-carbonyl]amino]-3-methyl-butyl]boronic acid]
< 10 nM	COc1ccc(-c2cccc(COCC3=NOC(Cc4ccccc4)(C(=O)N[C@@H](CC(C)C)B(O)O)C3)c2)cc1 (stereo partly drawn) [Example 56, ((1R)-1-(5-benzyl-3-(((4′-methoxy-[1,1′-biphenyl]-3-yl)methoxy)methyl)-4,5-dihydroisoxazol-5-carboxamido)-3-methylbutyl)boronic acid]
< 25 nM	COc1cccc(-c2cccc(COCC3=NOC(Cc4ccccc4)(C(=O)N[C@@H](CC(C)C)B(O)O)C3)c2)c1 (stereo partly drawn) [Example 57, ((1R)-1-(5-benzyl-3-(((3′-methoxy-[1,1′-biphenyl]-3-yl)methoxy)methyl)-4,5-dihydroisoxazol-5-carboxamido)-3-methylbutyl)boronic acid]
< 25 nM	COc1ccccc1-c1cccc(COCC2=NOC(Cc3ccccc3)(C(=O)N[C@@H](CC(C)C)B(O)O)C2)c1 (stereo partly drawn) [Example 58, [(1R)-1-[[5-benzyl-3-[[3-(2-methoxyphenyl)phenyl]methoxymethyl]-4H-1,2-oxazol-5-carbonyl]amino]-3-methyl-butyl]boronic acid]
< 25 nM	CC(C)C[C@H](NC(=O)C1CC(CNC(=O)c2cccc3ncccc23)=NO1)B(O)O (stereo partly drawn) [Example 62, ((1R)-3-methyl-1-(3-((quinolin-5-carboxamido)methyl)-4,5-dihydroisoxazol-5-carboxamido)butyl)boronic acid]
< 25 nM	CC(C)C[C@H](NC(=O)C1CC([C@@H](NC(=O)c2cccc3c2CCCC3)C(C)C)=NO1)B(O)O (stereo partly drawn) [Example 66, ((1R)-3-methyl-1-(3-((S)-2-methyl-1-(5,6,7,8-tetrahydronaphthalen-1-carboxamido)propyl)-4,5-dihydroisoxazol-5-carboxamido)butyl)boronic acid]
< 25 nM	CC(C)C[C@H](NC(=O)C1CC([C@@H](NC(=O)c2nccc3ccccc23)C(C)C)=NO1)B(O)O (stereo partly drawn) [Example 67, ((1R)-1-(3-((S)-1-(isoquinolin-1-carboxamido)-2-methylpropyl)-4,5-dihydroisoxazol-5-carboxamido)-3-methylbutyl)boronic acid]
< 25 nM	CC(C)C[C@H](NC(=O)C1CC(CNC(=O)c2ccc3ccccc3c2)=NO1)B(O)O (stereo partly drawn) [Example 69, [(1R)-3-methyl-1-[[3-[(naphthalen-2-carbonylamino)methyl]-4,5-dihydro-1,2-oxazol-5-carbonyl]amino]butyl]boronic acid]
